Data from US7807686B2, “2-(4-oxo-4H-quinazolin-3-yl)acetamides and their use as vasopressin V3 antagonists” (N.V. Organon, priority 2005, dated 2010).

Test system: not given
Experiment: not given
Conditions: not given

SMILES | melting point [°C]
CCN(CC)C[C@H](C)COc1ccc2nc(-c3cccc(OC)c3)n(CC(=O)NC(C)C)c(=O)c2c1 [Example 4a, (S)-(+)-2-[6-(3-Diethylamino-2-methylpropoxy)-2-(3-methoxyphenyl)-4-oxo-4H-quinazolin-3-yl]-N-isopropylacetamide] | 161 to 163

Target: T1, V3 receptor (Rattus norvegicus, UniProt P48974)
T1 construct: Anterior pituitary corticotrophs were prepared from adult female Sprague-Dawley rats; from tissue; host or cells: primary anterior pituitary corticotrophs from adult female Sprague-Dawley rats
T1 sequence (P48974 1-425): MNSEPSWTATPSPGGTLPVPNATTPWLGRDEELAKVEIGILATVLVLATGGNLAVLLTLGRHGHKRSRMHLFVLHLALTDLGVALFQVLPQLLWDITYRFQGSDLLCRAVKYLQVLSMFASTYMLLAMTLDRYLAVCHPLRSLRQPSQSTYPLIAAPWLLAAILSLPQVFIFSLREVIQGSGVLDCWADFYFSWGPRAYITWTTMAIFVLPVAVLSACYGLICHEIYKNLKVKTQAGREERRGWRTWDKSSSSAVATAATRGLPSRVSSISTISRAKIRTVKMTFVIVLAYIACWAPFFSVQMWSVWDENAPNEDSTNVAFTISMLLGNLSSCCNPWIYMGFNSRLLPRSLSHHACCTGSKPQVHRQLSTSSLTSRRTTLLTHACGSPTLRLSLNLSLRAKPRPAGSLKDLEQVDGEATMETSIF
Experiment: Block of AVP-induced ACTH release from rat anterior pituitary corticotrophs
Format: cell-based
Conditions: inhibition of ACTH release induced by 3×10^-9 mol.L^-1 AVP, ELISA; read-out: V3 receptor antagonism in isolated rat anterior pituitary cells
Description: The ability of compounds of the invention to act as V3 antagonists in a physiologically relevant system was determined by measuring their ability to block the release of adrenocorticotropic hormone (ACTH) from anterior pituitary corticotrophs in response to treatment with arginine vasopressin (AVP).
Anterior pituitary corticotrophs were prepared from adult female Sprague-Dawley rats and seeded into 48 well plates. The cells were cultured for 4 days prior to exposure to compound. Test compounds were prepared at […] in 100% DMSO. Cells were exposed to a dose response of test compounds for 20 minutes (10^−8 mol.L^−1-10^−5 mol.L^−1). The final concentration of DMSO in the assay was kept constant at 0.3%. The cells were then exposed to 3×10^−9 mol.L^−1 AVP for 120 minutes. Supernatants were harvested and stored at −20° C. ACTH levels were subsequently measured by ELISA following the manufacturer's instructions (Immunodiagnostic systems, UK (Cat No. DX-SDX018)). Each treatment was carried out in quadruplicate and a mean value obtained for the amount of ACTH released. The degree of antagonism was then calculated as a percentage of the amount of ACTH released by agonist alone after adjustment for basal levels of ACTH. A pIC50 was calculated by fitting a Sigmoidal dose response (variable slope) curve with a non-linear (fit) to the data using the software package GraphPad prism. […]

SMILES | IC50 [µM]
COc1cccc(-c2nc3ccc(OCCCN4CCCCC4)cc3c(=O)n2CC(=O)NC(C)C)c1 [EXAMPLE 2h, N-Isopropyl-2-[2-(3-methoxyphenyl)-4-oxo-6-(3-piperidin-1-ylpropoxy)-4H-quinazolin-3-yl]acetamide] | 0.01 to 0.1
COc1cccc(-c2nc3ccc(-c4cccc(CN(C)C)c4)cc3c(=O)n2CC(=O)NC(C)C)c1 [EXAMPLE 7k, 2-[6-(3-Dimethylaminomethylphenyl)-2-(3-methoxyphenyl)-4-oxo-4H-quinazolin-3-yl]-N-isopropylacetamide] | 0.1 to 1

Target: T2, human V3 receptor (Homo sapiens, UniProt P47901)
T2 construct: expressed in transfected cells
T2 sequence (P47901 1-424): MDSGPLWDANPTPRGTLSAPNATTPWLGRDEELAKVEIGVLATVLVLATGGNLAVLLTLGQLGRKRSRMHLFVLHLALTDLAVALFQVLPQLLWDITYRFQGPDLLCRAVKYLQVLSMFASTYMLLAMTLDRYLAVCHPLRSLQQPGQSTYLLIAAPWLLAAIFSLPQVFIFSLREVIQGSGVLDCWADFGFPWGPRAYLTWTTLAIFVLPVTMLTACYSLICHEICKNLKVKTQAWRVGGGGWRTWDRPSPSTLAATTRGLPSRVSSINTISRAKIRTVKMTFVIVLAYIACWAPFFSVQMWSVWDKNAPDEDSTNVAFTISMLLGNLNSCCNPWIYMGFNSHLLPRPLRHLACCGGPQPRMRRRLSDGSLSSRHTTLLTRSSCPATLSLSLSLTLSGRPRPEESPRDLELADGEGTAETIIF
Experiment: [3H]AVP binding to CHO cells stably expressing the human V3 receptor
Conditions: Ki from displacement of [3H]AVP (2.5×10^-9 mol.L^-1)
Description: Chinese Hamster Ovary (CHO) cells stably expressing the human V3 receptor were incubated to equilibrium with the test compound (at a final assay concentration of 10^−11 mol.L^−1 to 10^−5 mol.L^−1) and [^3H]AVP (at a final assay concentration of 2.5×10^−9 mol.L^−1). […] After washing with ice-cold phosphate buffered saline (PBS), scintillation fluid was added and the plates counted on a Topcount NXT apparatus.
A sigmoidal dose response curve (non-linear regression, variable slope) was plotted as concentration of test compound (mol.L^−1) against percentage specific binding of [^3H]AVP and a Ki value was calculated. Each determination was carried out in triplicate and repeated on at least 3 separate occasions

SMILES | Ki [µM]
COc1cccc(-c2nc3ccc(-c4cc(CN(C)C)ccc4F)cc3c(=O)n2CC(=O)NC(C)C)c1 [EXAMPLE 6a, 2-[6-(5-Dimethylaminomethyl-2-fluorophenyl)-2-(3-methoxyphenyl)-4-oxo-4H-quinazolin-3-yl]-N-isopropylacetamide] | < 0.01
COc1cccc(-c2nc3ccc(-c4cccc(CN(C)C)n4)cc3c(=O)n2CC(=O)NC(C)C)c1 [EXAMPLE 6b, 2-[6-(6-Dimethylaminomethylpyridin-2-yl)-2-(3-methoxyphenyl)-4-oxo-4H-quinazolin-3-yl]-N-isopropylacetamide] | 0.01 to 0.1
COc1cccc(-c2nc3ccc(-c4cccc(CN(C)CC(C)C)c4)cc3c(=O)n2CC(=O)NC(C)C)c1 [EXAMPLE 7p, 2-[6-{3-[(Isobutylmethylamino)methyl]phenyl}-2-(3-methoxyphenyl)-4-oxo-4H-quinazolin-3-yl]-N-isopropylacetamide] | 0.01 to 0.1
COc1cccc(-c2nc3ccc(-c4cccc(CN5CCOCC5)c4)cc3c(=O)n2CC(=O)NC(C)C)c1 [EXAMPLE 7u, N-Isopropyl-2-[2-(3-methoxyphenyl)-6-(3-morpholin-4-ylmethylphenyl)-4-oxo-4H-quinazolin-3-yl]acetamide] | < 0.01
C=CCNC(=O)Cn1c(-c2ccccc2)nc2ccc(-c3cccc(CN4CCCCC4)c3)cc2c1=O [EXAMPLE 7x, N-Allyl-2-[4-oxo-2-phenyl-6-(3-piperidin-1-ylmethylphenyl)-4H-quinazolin-3-yl]acetamide] | 0.1 to 1
COc1cccc(-c2nc3ccc(-c4ccc(CN5CCC5)o4)cc3c(=O)n2CC(=O)NC(C)C)c1 [EXAMPLE 9a, 2-[6-(5-Azetidin-1-ylmethylfuran-2-yl)-2-(3-methoxyphenyl)-4-oxo-4H-quinazolin-3-yl]-N-isopropylacetamide] | 0.01 to 0.1
COc1cccc(-c2nc3ccc(/C=C/CCN4CCOCC4)cc3c(=O)n2CC(=O)NC(C)C)c1 [EXAMPLE 10b, N-Isopropyl-2-[2-(3-methoxyphenyl)-6-(4-morpholin-4-ylbut-1-enyl)-4-oxo-4H-quinazolin-3-yl]acetamide] | 0.01 to 0.1
COc1cccc(-c2nc3ccc(CCCCN4CCCC4)cc3c(=O)n2CC(=O)NC(C)C)c1 [EXAMPLE 11b, N-Isopropyl-2-[2-(3-methoxyphenyl)-4-oxo-6-(4-pyrrolidin-1-ylbutyl)-4H-quinazolin-3-yl]acetamide] | 0.01 to 0.1
COc1cccc(-c2nc3ccc(OCCC4CCCCN4C)cc3c(=O)n2CC(=O)NC(C)C)c1 (centres unmarked) [EXAMPLE 12a, N-Isopropyl-2-[2-(3-methoxyphenyl)-6-[2-(1-methylpiperidin-2-yl)ethoxy]-4-oxo-4H-quinazolin-3-yl]acetamide] | 0.1 to 1
COc1cccc(-c2nc3ccc(NCCCN4CCCCC4)cc3c(=O)n2CC(=O)NC(C)C)c1 [EXAMPLE 13a, N-Isopropyl-2-[2-(3-methoxyphenyl)-4-oxo-6-(3-piperidin-1-ylpropylamino)-4H-quinazolin-3-yl]acetamide] | 0.1 to 1
COc1cccc(-c2nc3ccc(OCC4CCCN(C)C4)cc3c(=O)n2CC(=O)NC(C)C)c1 (centres unmarked) [EXAMPLE 14a, N-Isopropyl-2-[2-(3-methoxyphenyl)-6-(1-methylpiperidin-3-ylmethoxy)-4-oxo-4H-quinazolin-3-yl]acetamide] | 0.1 to 1
